From patent US8471005B2 (Cephalon, Inc., priority 2008, dated 2013) come the findings set out here.

The structures appear in SMILES notation.

Assay [1] addresses T1, ALK (Homo sapiens, UniProt Q9UM73).
T1 construct: host or cells: baculovirus expression system
Kind of assay: ALK Kinase Assay (ELISA/TRF, PLC-γ substrate). Format: biochemical. The following applies: ALK kinase inhibition, 1 μM ATP; read-out: ALK Potency. An outline of the steps:
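Read-out is time-resolved fluorescence from a Eu-N1-labeled PT66 antibody that binds phosphorylated PLC-γ, the substrate coated at 10 μg/mL in TBS. ALK at 30 ng/ml starts the reaction, which runs 15 minutes at 37° C.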
For orientation: In an ELISA, binding on a coated surface is turned into a signal by an enzyme label.

Assay [2] concerns the target T2, JAK2 (Homo sapiens, UniProt O60674).
T2 construct: host or cells: baculovirus expression system
Put plainly: Recombinant Human JAK2 Kinase Assay (TRF). Format: biochemical. The following applies: JAK2 kinase inhibition, 0.2 μM ATP; read-out: JAK2 Potency. Summed up:
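Europium-labelled PY100 antibody reported tyrosine phosphorylation of a Neutravidin-captured biotinyl 15-mer peptide by JAK2 (baculovirus-expressed, 15 ng/ml). Conditions: 20 mM HEPES pH 7.2, 0.2 μM ATP, 1 mM MnCl2, 0.1% BSA, DMSO 2.5% final, 20 min at room temperature.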

T1 sequence (Q9UM73 19-1620): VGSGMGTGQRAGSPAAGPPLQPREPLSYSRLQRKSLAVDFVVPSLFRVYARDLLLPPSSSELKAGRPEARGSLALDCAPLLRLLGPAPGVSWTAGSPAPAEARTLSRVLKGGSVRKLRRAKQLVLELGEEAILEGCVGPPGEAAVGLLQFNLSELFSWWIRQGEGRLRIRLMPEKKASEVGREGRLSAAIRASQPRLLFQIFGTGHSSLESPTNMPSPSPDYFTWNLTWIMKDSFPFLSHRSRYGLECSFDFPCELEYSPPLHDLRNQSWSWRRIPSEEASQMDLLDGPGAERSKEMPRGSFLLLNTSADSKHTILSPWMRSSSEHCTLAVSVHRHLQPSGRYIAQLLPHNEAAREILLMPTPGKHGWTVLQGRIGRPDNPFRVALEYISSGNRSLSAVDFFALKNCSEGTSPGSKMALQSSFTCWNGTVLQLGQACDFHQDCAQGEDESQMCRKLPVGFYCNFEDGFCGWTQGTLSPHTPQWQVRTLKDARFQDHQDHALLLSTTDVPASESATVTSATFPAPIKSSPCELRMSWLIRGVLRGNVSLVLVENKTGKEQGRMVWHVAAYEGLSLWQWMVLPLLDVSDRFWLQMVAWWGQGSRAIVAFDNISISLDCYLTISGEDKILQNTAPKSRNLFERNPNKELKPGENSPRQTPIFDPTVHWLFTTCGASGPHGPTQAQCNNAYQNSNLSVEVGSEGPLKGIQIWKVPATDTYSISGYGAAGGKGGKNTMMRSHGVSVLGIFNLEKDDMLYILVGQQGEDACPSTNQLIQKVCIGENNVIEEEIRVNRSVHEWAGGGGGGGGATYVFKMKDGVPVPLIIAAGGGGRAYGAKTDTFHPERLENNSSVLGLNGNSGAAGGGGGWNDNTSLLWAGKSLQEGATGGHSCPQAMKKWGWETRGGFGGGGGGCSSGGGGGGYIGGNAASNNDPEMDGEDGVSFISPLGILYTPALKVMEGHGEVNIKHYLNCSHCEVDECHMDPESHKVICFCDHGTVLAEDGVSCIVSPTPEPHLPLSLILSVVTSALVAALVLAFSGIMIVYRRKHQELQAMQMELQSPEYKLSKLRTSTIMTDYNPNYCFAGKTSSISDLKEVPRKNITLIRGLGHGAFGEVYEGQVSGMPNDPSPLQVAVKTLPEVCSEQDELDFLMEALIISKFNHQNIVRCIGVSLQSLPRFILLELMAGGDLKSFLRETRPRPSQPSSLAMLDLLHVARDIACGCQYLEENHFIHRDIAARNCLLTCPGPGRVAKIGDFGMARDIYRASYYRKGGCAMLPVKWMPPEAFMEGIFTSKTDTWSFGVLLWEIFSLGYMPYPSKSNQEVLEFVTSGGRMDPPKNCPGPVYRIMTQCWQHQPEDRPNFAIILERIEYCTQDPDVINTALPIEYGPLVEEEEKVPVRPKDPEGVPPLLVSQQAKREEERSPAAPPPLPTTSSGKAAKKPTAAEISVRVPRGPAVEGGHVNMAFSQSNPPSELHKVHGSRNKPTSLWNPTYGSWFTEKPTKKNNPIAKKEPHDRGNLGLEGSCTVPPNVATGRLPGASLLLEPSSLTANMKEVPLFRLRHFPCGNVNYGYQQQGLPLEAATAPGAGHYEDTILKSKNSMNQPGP
T2 sequence (O60674 whole entry): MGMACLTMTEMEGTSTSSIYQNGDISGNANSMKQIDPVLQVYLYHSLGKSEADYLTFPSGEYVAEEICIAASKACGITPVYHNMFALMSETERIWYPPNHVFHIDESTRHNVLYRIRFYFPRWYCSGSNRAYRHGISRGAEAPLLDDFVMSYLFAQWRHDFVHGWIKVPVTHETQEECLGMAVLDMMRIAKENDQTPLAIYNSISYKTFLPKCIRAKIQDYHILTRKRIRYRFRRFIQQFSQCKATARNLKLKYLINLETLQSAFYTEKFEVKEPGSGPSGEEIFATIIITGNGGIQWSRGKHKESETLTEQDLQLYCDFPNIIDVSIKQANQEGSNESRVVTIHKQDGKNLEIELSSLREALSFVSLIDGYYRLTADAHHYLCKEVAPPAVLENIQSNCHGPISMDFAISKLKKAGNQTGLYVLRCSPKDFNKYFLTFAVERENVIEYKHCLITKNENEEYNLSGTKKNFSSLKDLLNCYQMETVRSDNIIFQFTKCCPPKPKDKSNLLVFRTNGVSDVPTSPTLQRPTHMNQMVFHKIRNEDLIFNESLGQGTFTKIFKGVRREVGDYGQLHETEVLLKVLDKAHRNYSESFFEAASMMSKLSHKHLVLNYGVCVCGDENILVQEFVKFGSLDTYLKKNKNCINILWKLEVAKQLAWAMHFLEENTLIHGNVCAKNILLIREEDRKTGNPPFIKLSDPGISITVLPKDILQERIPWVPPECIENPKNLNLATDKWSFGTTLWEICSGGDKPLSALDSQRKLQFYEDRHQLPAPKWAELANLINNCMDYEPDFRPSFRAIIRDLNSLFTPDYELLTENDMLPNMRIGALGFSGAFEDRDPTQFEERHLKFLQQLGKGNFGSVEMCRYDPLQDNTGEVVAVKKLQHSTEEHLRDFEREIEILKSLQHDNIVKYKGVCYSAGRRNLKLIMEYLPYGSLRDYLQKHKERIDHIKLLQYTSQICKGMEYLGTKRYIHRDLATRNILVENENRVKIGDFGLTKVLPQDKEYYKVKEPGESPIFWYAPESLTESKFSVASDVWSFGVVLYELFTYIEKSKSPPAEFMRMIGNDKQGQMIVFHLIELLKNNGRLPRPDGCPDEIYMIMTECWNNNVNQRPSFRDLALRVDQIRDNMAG

Turning to `CN(c1ccccc1-c1ccc2cnc(Nc3ccc4c(cnn4C)c3)nn12)S(C)(=O)=O` [Example 1339, N-Methyl-N-{2-[2-(1-methyl-1H-indazol-5-ylamino)-pyrrolo[2,1-f][1,2,4]triazin-7-yl]-phenyl}-methanesulfonamide], the IC50 is 0.1 to 1 µM in assay [1] and < 0.1 µM in assay [2].

For the compound `CN(c1ccccc1-c1ccc2cnc(Nc3ccc4cnn(C)c4c3)nn12)S(C)(=O)=O` [Example 1340, N-Methyl-N-{2-[2-(1-methyl-1H-indazol-6-ylamino)-pyrrolo[2,1-f][1,2,4]triazin-7-yl]-phenyl}-methanesulfonamide], the IC50 in assay [1] is 0.1 to 1 µM; in assay [2] it was < 0.1 µM.

In the case of `CN(c1ccccc1-c1ccc2cnc(Nc3ccc4nc(C(C)(C)C)[nH]c4c3)nn12)S(C)(=O)=O` [Example 1341, N-{2-[2-(2-tert-Butyl-3H-benzimidazol-5-ylamino)-pyrrolo[2,1-f][1,2,4]triazin-7-yl]-phenyl}-N-methyl-methanesulfonamide], the IC50 was 0.1 to 1 µM in assay [1] and < 0.1 µM in assay [2].

With `CN(c1ccccc1-c1ccc2cnc(Nc3ccc4cn(CCN5CCOCC5)nc4c3)nn12)S(C)(=O)=O` [Example 1342, N-Methyl-N-(2-{2-[2-(2-morpholin-4-yl-ethyl)-2H-indazol-6-ylamino]-pyrrolo[2,1-f][1,2,4]triazin-7-yl}-phenyl)-methanesulfonamide], the values for the IC50 in assay [1] and in assay [2] were 0.1 to 1 µM and < 0.1 µM, respectively.

With `CN(c1ccccc1-c1ccc2cnc(Nc3ccc4nn(CCN5CCOCC5)cc4c3)nn12)S(C)(=O)=O` [Example 1343, N-Methyl-N-(2-{2-[2-(2-morpholin-4-yl-ethyl)-2H-indazol-5-ylamino]-pyrrolo[2,1-f][1,2,4]triazin-7-yl}-phenyl)-methanesulfonamide], the IC50 in assay [1] and in assay [2] was < 0.1 µM each time.

As to `CC(C)(C)NS(=O)(=O)c1cccc(-c2ccc3cnc(Nc4ccc5cn(CCN6CCOCC6)nc5c4)nn23)c1` [Example 1344, N-tert-Butyl-3-{2-[2-(2-morpholin-4-yl-ethyl)-2H-indazol-6-ylamino]-pyrrolo[2,1-f][1,2,4]triazin-7-yl}-benzenesulfonamide], the values for the IC50 in assay [1] and in assay [2] were 0.1 to 1 µM and < 0.1 µM, respectively.

Turning to `CC(C)(C)NS(=O)(=O)c1cccc(-c2ccc3cnc(Nc4ccc5nn(CCN6CCOCC6)cc5c4)nn23)c1` [Example 1345, N-tert-Butyl-3-{2-[2-(2-morpholin-4-yl-ethyl)-2H-indazol-5-ylamino]-pyrrolo[2,1-f][1,2,4]triazin-7-yl}-benzenesulfonamide], the values for the IC50 in assay [1] and in assay [2] were 0.1 to 1 µM and < 0.1 µM, respectively.

Turning to `COc1ccccc1-c1ccc2cnc(Nc3ccc4c(cnn4CCN4CCOCC4)c3)nn12` [Example 1346, [7-(2-Methoxy-phenyl)-pyrrolo[2,1-f][1,2,4]triazin-2-yl]-[1-(2-morpholin-4-yl-ethyl)-1H-indazol-5-yl]-amine], the IC50 is 0.1 to 1 µM in assay [1] and < 0.1 µM in assay [2].

Regarding `COc1ccccc1-c1ccc2cnc(Nc3ccc4cnn(CCN5CCOCC5)c4c3)nn12` [Example 1347, [7-(2-Methoxy-phenyl)-pyrrolo[2,1-f][1,2,4]triazin-2-yl]-[1-(2-morpholin-4-yl-ethyl)-1H-indazol-6-yl]-amine], the IC50 is 1 to 10 µM in assay [1] and < 0.1 µM in assay [2].

On to `COc1ccccc1-c1ccc2cnc(Nc3ccc4c(c3)ncn4CCN3CCOCC3)nn12` [Example 1348, [7-(2-Methoxy-phenyl)-pyrrolo[2,1-f][1,2,4]triazin-2-yl]-[1-(2-morpholin-4-yl-ethyl)-1H-benzimidazol-5-yl]-amine], for which the IC50 was 0.1 to 1 µM in assay [1] and < 0.1 µM in assay [2].

In the case of `COc1ccccc1-c1ccc2cnc(Nc3ccc4ncn(CCN5CCOCC5)c4c3)nn12` [Example 1349, [7-(2-Methoxy-phenyl)-pyrrolo[2,1-f][1,2,4]triazin-2-yl]-[3-(2-morpholin-4-yl-ethyl)-3H-benzimidazol-5-yl]-amine], the figures for the IC50 in assay [1] and in assay [2] were 0.1 to 1 µM and < 0.1 µM, respectively.

In the case of `COc1ccccc1-c1ccc2cnc(Nc3ccc4cn(CCN5CCOCC5)nc4c3)nn12` [Example 1350, [7-(2-Methoxy-phenyl)-pyrrolo[2,1-f][1,2,4]triazin-2-yl]-[2-(2-morpholin-4-yl-ethyl)-2H-indazol-6-yl]-amine], the IC50 was 1 to 10 µM in assay [1] and < 0.1 µM in assay [2].

Take `COc1ccccc1-c1ccc2cnc(Nc3ccc4nn(CCN5CCOCC5)cc4c3)nn12` [Example 1351, [7-(2-Methoxy-phenyl)-pyrrolo[2,1-f][1,2,4]triazin-2-yl]-[2-(2-morpholin-4-yl-ethyl)-2H-indazol-5-yl]-amine]: the IC50 in assay [1] is 0.1 to 1 µM; in assay [2], < 0.1 µM.

Turning to `COc1ccccc1-c1ccc2cnc(Nc3ccc4nc(C(C)(C)C)[nH]c4c3)nn12` [Example 1352, (2-tert-Butyl-3H-benzimidazol-5-yl)-[7-(2-methoxy-phenyl)-pyrrolo[2,1-f][1,2,4]triazin-2-yl]-amine], the IC50 in assay [1] was 0.1 to 1 µM; in assay [2] it was < 0.1 µM.

On to `COc1cccc(F)c1-c1ccc2cnc(Nc3ccc(C4CCN(CC(N)=O)CC4)cc3)nn12` [Example 1353, 2-(4-{4-[7-(2-Fluoro-6-methoxy-phenyl)-pyrrolo[2,1-f][1,2,4]triazin-2-ylamino]-phenyl}-piperidin-1-yl)-acetamide], for which the IC50 in assay [1] and in assay [2] was < 0.1 µM each time.

Take `CN(c1ccccc1-c1ccc2cnc(Nc3cccnc3)nn12)S(C)(=O)=O` [Example 1361, N-Methyl-N-{2-[2-(pyridin-3-ylamino)-pyrrolo[2,1-f][1,2,4]triazin-7-yl]-phenyl}-methanesulfonamide]: the results for the IC50 in assay [1] and in assay [2] were 1 to 10 µM and < 0.1 µM, respectively.

Turning to `CN(c1ccccc1-c1ccc2cnc(Nc3nccs3)nn12)S(C)(=O)=O` [Example 1362, N-Methyl-N-{2-[2-(thiazol-2-ylamino)-pyrrolo[2,1-f][1,2,4]triazin-7-yl]-phenyl}-methanesulfonamide], the IC50 in assay [1] was 1 to 10 µM; in assay [2], 0.1 to 1 µM.

Take `CC(=O)Nc1cccc(Nc2ncc3ccc(-c4cccc(NS(C)(=O)=O)c4)n3n2)c1` [Example 1363, N-{3-[7-(3-Methanesulfonylamino-phenyl)-pyrrolo[2,1-f][1,2,4]triazin-2-ylamino]-phenyl}-acetamide]: the IC50 was 1 to 10 µM in assay [1] and < 0.1 µM in assay [2].

For `CN(c1ccccc1-c1ccc2cnc(Nc3ccncc3)nn12)S(C)(=O)=O` [Example 1364, N-Methyl-N-{2-[2-(pyridin-4-ylamino)-pyrrolo[2,1-f][1,2,4]triazin-7-yl]-phenyl}-methanesulfonamide], the results for the IC50 in assay [1] and in assay [2] were 1 to 10 µM and < 0.1 µM, respectively.

On to `CC(=O)N1CCCC(C)(C)c2ccc(Nc3ncc4ccc(-c5cccc(NS(C)(=O)=O)c5)n4n3)cc21` [Example 1365, N-{3-[2-(1-Acetyl-5,5-dimethyl-2,3,4,5-tetrahydro-1H-benzo[b]azepin-8-ylamino)-pyrrolo[2,1-f][1,2,4]triazin-7-yl]-phenyl}-methanesulfonamide], for which the results for the IC50 in assay [1] and in assay [2] were 1 to 10 µM and < 0.1 µM, respectively.
